In PubChem BioAssay (NCI) one finds TGI data, which are given here for seven compounds.

Among the test systems are NCI-H226 lung; HL-60(TB) leukemia; ACHN renal; TK-10 renal; CCRF-CEM leukemia; RPMI-8226 leukemia; LOX IMVI melanoma; COLO 205 colon; MCF7 breast; SK-OV-3 ovarian; MDA-N; EKVX NSCLC; 786-0 renal; SF-268 CNS; SK-MEL-28 melanoma; SF-539 CNS; HOP-62 NSCLC; PC-3 prostate; SK-MEL-2 melanoma; SNB-75 CNS.
Common to all, as to assay: growth of human tumour cells (NCI), 48 h

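Method: 48-hour compound exposure of cells in 96-well plates, five concentrations, linear interpolation of endpoints. TGI is the concentration that stops growth completely.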

Consider `CC1CC(=O)Nc2ccccc2N1C(=O)C1CC1` (stereo not drawn), for which the TGI in the assay with NCI-H226 lung, in the assay on HL-60(TB) leukemia, with ACHN renal, with TK-10 renal, with CCRF-CEM leukemia and with RPMI-8226 leukemia was over 100 µM in each case. Also, the TGI in the assay with LOX IMVI melanoma, in the assay on COLO 205 colon, in the assay on MCF7 breast, in the assay on SK-OV-3 ovarian, in the assay with MDA-N and with EKVX NSCLC was over 100 µM in each case. For the same compound, the TGI with 786-0 renal, in the assay with SF-268 CNS, in the assay with SK-MEL-28 melanoma, with SF-539 CNS, in the assay with HOP-62 NSCLC and with PC-3 prostate was over 100 µM in each case. Moreover, the TGI in the assay on SK-MEL-2 melanoma was over 100 µM.

With `O=C1CN(c2ccccc2)C(=O)CN1NCNN1CC(=O)N(c2ccccc2)CC1=O`, the TGI in the assay on HL-60(TB) leukemia, with SNB-75 CNS, in the assay on ACHN renal, with TK-10 renal, with CCRF-CEM leukemia and with RPMI-8226 leukemia was over 100 µM each time. Further, the TGI in the assay on COLO 205 colon, in the assay with MCF7 breast, with SK-OV-3 ovarian, with MDA-N, with EKVX NSCLC and in the assay with 786-0 renal was over 100 µM in each case. Also, the TGI with SF-268 CNS, in the assay on SK-MEL-28 melanoma, in the assay on SF-539 CNS, with HOP-62 NSCLC and in the assay on PC-3 prostate was over 100 µM in each case.

With `C/C(=N\O)c1cccc(Nc2c3ccccc3nc3occc23)c1`, the TGI was 54.8 µM in the assay on NCI-H226 lung; over 100 µM in the assay on HL-60(TB) leukemia; 38.6 µM with ACHN renal; 44.3 µM in the assay with TK-10 renal; over 100 µM in the assay on CCRF-CEM leukemia; over 100 µM in the assay with RPMI-8226 leukemia. In addition, the TGI was over 100 µM in the assay on LOX IMVI melanoma; over 100 µM in the assay with COLO 205 colon; 34 µM in the assay on MCF7 breast; 36.8 µM with SK-OV-3 ovarian; over 100 µM in the assay with MDA-N; 50.6 µM with EKVX NSCLC. Besides, the TGI is 28.3 µM with 786-0 renal; 56.9 µM in the assay on SF-268 CNS; 25.6 µM with SK-MEL-28 melanoma; 21.1 µM in the assay on SF-539 CNS; 17.5 µM in the assay with HOP-62 NSCLC; over 100 µM in the assay on PC-3 prostate. Also, the TGI in the assay on SK-MEL-2 melanoma amounted to 25.2 µM.

With `O=CC1OC(=O)c2cc(O)c(O)c(O)c2-c2c(cc(O)c(O)c2O)C(=O)OC1C1OC(=O)c2cc(O)c(O)c(O)c2-c2c(O)c(O)c3oc(=O)c4c(c(O)c(O)c5oc(=O)c2c3c54)-c2c(cc(O)c(O)c2O)C(=O)OCC1O` (stereo not drawn), the TGI in the assay with NCI-H226 lung is over 100 µM; with HL-60(TB) leukemia, over 100 µM; in the assay on SNB-75 CNS it was 93.8 µM; with ACHN renal, over 100 µM; in the assay with CCRF-CEM leukemia, over 100 µM; with RPMI-8226 leukemia it was over 100 µM. Moreover, the TGI in the assay with LOX IMVI melanoma was 29.2 µM; with COLO 205 colon, over 100 µM; in the assay on MCF7 breast, 40.6 µM; in the assay with SK-OV-3 ovarian, over 100 µM; in the assay on MDA-N, 51.9 µM; with EKVX NSCLC it was over 100 µM. Also, the TGI in the assay on 786-0 renal is 42.6 µM; in the assay with SF-268 CNS, over 100 µM; in the assay on SK-MEL-28 melanoma, over 100 µM; in the assay on HOP-62 NSCLC it was over 100 µM; with PC-3 prostate it was over 100 µM; in the assay on SK-MEL-2 melanoma, over 100 µM.

For `COC(=O)[C@H](Cc1ccccc1)NC(=O)N(CCNC(=O)OC(C)(C)C)c1ccccc1`, the TGI in the assay on NCI-H226 lung, in the assay with HL-60(TB) leukemia, with SNB-75 CNS, in the assay with ACHN renal, in the assay on CCRF-CEM leukemia and in the assay with RPMI-8226 leukemia was over 100 µM each time. Further, the TGI in the assay with LOX IMVI melanoma, in the assay on COLO 205 colon, in the assay on MCF7 breast, with SK-OV-3 ovarian, in the assay on MDA-N and in the assay on EKVX NSCLC was over 100 µM in each case. The TGI in the assay on 786-0 renal, in the assay on SF-268 CNS, in the assay with SK-MEL-28 melanoma, in the assay with HOP-62 NSCLC, with PC-3 prostate and in the assay with SK-MEL-2 melanoma was over 100 µM each time.

In the case of `O=C(CC(C(=O)c1cccs1)c1ccc2c(c1)OCO2)c1ccccc1` (stereo not drawn), the TGI with NCI-H226 lung, in the assay with HL-60(TB) leukemia, in the assay on SNB-75 CNS, with ACHN renal, in the assay on TK-10 renal and with RPMI-8226 leukemia was over 100 µM throughout. The TGI with LOX IMVI melanoma, in the assay on COLO 205 colon, in the assay with MCF7 breast, in the assay with SK-OV-3 ovarian, in the assay on MDA-N and in the assay on 786-0 renal was over 100 µM throughout. Besides, the TGI with SF-268 CNS, with SK-MEL-28 melanoma, in the assay on SF-539 CNS, with HOP-62 NSCLC, with PC-3 prostate and in the assay with SK-MEL-2 melanoma was over 100 µM each time.

In the case of `c1ccc(/C(=N/Nc2ccccn2)c2cccnn2)cc1`, the TGI in the assay on NCI-H226 lung was 11.2 µM; in the assay on HL-60(TB) leukemia, 71.3 µM; in the assay with SNB-75 CNS it was 32.7 µM; in the assay on ACHN renal it was 24.5 µM; in the assay with TK-10 renal it was over 100 µM; with RPMI-8226 leukemia it was 17 µM. The TGI in the assay on LOX IMVI melanoma was over 100 µM; in the assay with COLO 205 colon, over 100 µM; in the assay on MCF7 breast, over 93.4 µM; with SK-OV-3 ovarian, over 47.6 µM; with MDA-N, over 100 µM; with EKVX NSCLC, 16.7 µM. For the same compound, the TGI in the assay with 786-0 renal was over 100 µM; with SF-268 CNS, 6.42 µM; with SK-MEL-28 melanoma, over 100 µM; in the assay with SF-539 CNS, 24.9 µM; in the assay on HOP-62 NSCLC it was over 63.8 µM; with PC-3 prostate it was over 100 µM. In addition, the TGI with SK-MEL-2 melanoma was over 100 µM.
